Each structure is given as a SMILES string.

In the test the test system is lysosome (U2OS cells). The test can be described thus: Structural illumination microscopy (N-SIM) super-resolution imaging of lysosomes. The format is cell-based. The note with it: FIG. 8. An excerpt: Super-resolution imaging by structural illumination microscopy: super-resolution microscope N-SIM (Nikon, Japan) was employed. The maximum excitation wavelength of Alexa Fluor 647 was 650 nm and the maximum emission wavelength was 665 nm; the maximum excitation wavelength of LysoTracker Red was 577 nm and the maximum emission wavelength of LysoTracker Red was 590 nm; the maximum excitation wavelength of Atto 565 was 563 nm and the maximum emission wavelength of Atto 565 was 592 nm; the maximum excitation wavelength of Atto 488 was 501 nm and the maximum emission wavelength was 523 nm. A sample was photographed using a 2D-SIM mode, one SIM result was calculated from 9 original images (three angles, three phases), and the exposure time of each original image was 30 ms. Considering quick movement ability of a lysosome in living cells, single-color imaging interval time was set as 1 s so as to continuously photograph cells at above 300 frames. After the capturing was completed, the average time interval among various SIM images was about 1.15 s. […]
Based on a time-lapsed SIM imaging, take the center of the lysosome as a reference, the coordinates of lysosomes were recorded using ImageJ software, and trace charts of 101 lysosomes in four U2OS cells on the confocal surface were drawn using MATLAB (FIGS. 6A-6H). […]

In the case of `CN(C)CCNC(=O)CCc1ccc2n1[B-](F)(F)[N+]1=C(c3ccc[nH]3)C=CC1=C2` [LysoTracker Red], the “background in structural illumination super-resolution imaging” value was “uneven background of LysoTracker Red was very obvious”.

Source of the values: US20190293657A1, “PEPTIDE, FLUORESCENT PROBE COMPRISING THE SAME, AND PREPARATION METHOD THEREOF” (Singulprobe Nanjing Biotechnology Co., Ltd, priority 2017, published 2019).
